In test [1] the test system is Myc-CAP (STING^lo) tumors. Kind of test: Myc-CAP syngeneic tumor growth. Type of test: in vivo, mouse. The following applies: immunocompetent syngeneic mice. On the procedure:
FIGS. 25A and 25B. […] (25A-25B) Myc-CAP (STING^lo) tumor-bearing syngeneic mice were treated with the indicated drug(s) until untreated tumors reached approx. 2500 mm^3. Tumor volume curves for duration of treatment are shown.
FIGS. 26A-26D. […] Immunodeficient athymic nude (26A) and NOD-SCID (26B) mice were engrafted with Myc-CAP (STING^lo) tumors and treated with the indicated drug(s) until untreated tumors reached approx. 2000 mm^3. Tumor volume curves for duration of treatment are shown. For 26A-26B, n=3-4 mice per group. (26C-26D) Single-cell suspensions were generated from harvested tumors and analyzed by flow cytometry for the indicated immune cell populations and their activation states. Data are represented relative to CD45+ immune cells. For 26C-26D, n=3-5 animals per treatment group from 2 independent experiments. Significance/p-values were calculated by […].
FIGS. 29A-29M. […] Myc-CAP cancer cells were treated with the indicated drugs singly or in combination for 36 hours. (29A) Cells were stained with anti-mouse specific p-γH2AX antibody and a fluorescently labeled secondary antibody for determination of DNA DSBs, which were quantified by confocal microscopy. (29B) Protein extracts from cells in 29A were analyzed for the indicated pharmacodynamic biomarkers by western blotting; (29C) Annexin V-PI staining was done to assess frequency of live cells (Annexin V^− PI^−) following drug treatment. (29D) Ultracentrifugation was utilized to purify microvesicles (MVs) from supernatants in treatment groups in (29A) and associated DNA DSBs was quantified by Nanodrop®. Independent experiments n=2. (29E) Ultracentrifugation was utilized to purify MVs from supernatants in indicated treatment groups in FIG. 17A, and associated DNA DSBs were quantified by Nanodrop®; n=2 independent experiments. (29F) Syngeneic mice were engrafted with Myc-CAP (STING^lo) cells, and tumors were harvested when the tumor volume reached 400 mm^3. Single cell suspensions of the tumors were treated with the indicated drug(s), in the presence or absence of GW4869 (MV biogenesis inhibitor). (29G) Bone marrow derived macrophage (BMDMs) were co-cultured for 30 hours with supernatants (−/+ exogenous 50 units of DNase I pre-treatment for 30 minutes) from Myc-CAP cells that were treated with the indicated drug(s) for 36 hours. (29H) cGAMP (10 μg/mL) was pre-incubated with 10 units of DNAse I or mock control for 30 minutes and then added to BMDMs for 30 hours. (29I-29L) STING^+/+/STING^−/− BMDMs were co-cultured for 36 hours with supernatants from Myc-CAP and B6-Myc cancer cells that were treated with the indicated drug(s) for 36 hours. Supernatants were collected from 29F-29L at the end of treatment and analyzed for IFNβ1 by ELISA. (29M) Myc-CAP (STING^lo) tumor-bearing mice were treated with the indicated drug(s) until tumors first reached approx. 2500 mm^3. For the degerelix/rucaparib/buparlisib combination, additional cohorts of mice underwent concomitant treatment with STING antagonist H-151 or GW4869. Tumor volume was recorded daily for duration of experiment. For in vitro experiments, n=2 independent experiments and for in vivo experiments n=3-4 animals /group.

In test [2] the test system is Myc-CAP (STING^lo) tumors. Description: Immune profiling of Myc-CAP tumors (flow cytometry, qRT-PCR). Type of test: in vivo, mouse. To be noted: degarelix for 10 days. As to the method:
FIGS. 24A-24G. […] Myc-CAP (STING^lo) tumor-bearing syngeneic mice were treated with degarelix (chemical castration) for 10 days. At the end of treatment, tumors were harvested and analyzed by flow cytometry for infiltration of CD45+ immune cells (24A), macrophages (24B) and CD4/CD8 T cells (24C-24D). Mean fluorescence intensity (MFI) is depicted for PD-Ll expression on CD45−/CD45+ cells (24E-24F) and TAMs (24G) within the TME; n=3-5 animals/group; Significance/p-values were calculated by Un-paired t-test.
FIGS. 26A-26D. […] (26C-26D) Single-cell suspensions were generated from harvested tumors and analyzed by flow cytometry for the indicated immune cell populations and their activation states. […] Significance/p-values were calculated by […].
FIGS. 27A-27D. […] Single-cell suspensions were generated from harvested tumors and analyzed by flow cytometry for CD4 infiltration (27A) and activation (27C). (27B, 27D) Single-cell suspensions were generated from harvested tumors and analyzed by flow cytometry for the indicated immune cell populations and their activation states. […] Significance/p-values were calculated by one-way ANOVA.
FIGS. 28A and 28B. […] (28B) Single-cell suspensions were generated from harvested tumors and analyzed by flow cytometry for macrophage (F4/80+) Arginase I expression. n=3 animals/group; Significance/p-values were calculated by one-way ANOVA. […]
(In general: Flow cytometry measures light scatter and fluorescence of single cells or particles in a stream.)

Square brackets hold non-standard residues; d marks the D form. Peptide text beside a SMILES is read from it. * marks the point of attachment. dPhe(4-NHCONH2) = NC(=O)Nc1ccc(C[C@@H](N)C(=O)O)cc1; Dihydroorotyl(S) = O=C1C[C@@H](C(=O)*)NC(=O)N1; dPhe(4-Cl) = N[C@H](Cc1ccc(Cl)cc1)C(=O)O; Phe(4-NH2) = Nc1ccc(C[C@H](N)C(=O)O)cc1; d2Nal = N[C@H](Cc1ccc2ccccc2c1)C(=O)O; Lys(iPr) = CC(C)NCCCC[C@H](N)C(=O)O; d3Pal = N[C@H](Cc1cccnc1)C(=O)O

For `CC(=O)N[C@H](Cc1ccc2ccccc2c1)C(=O)N[C@H](Cc1ccc(Cl)cc1)C(=O)N[C@H](Cc1cccnc1)C(=O)N[C@@H](CO)C(=O)N[C@@H](Cc1ccc(NC(=O)[C@@H]2CC(=O)NC(=O)N2)cc1)C(=O)N[C@H](Cc1ccc(NC(N)=O)cc1)C(=O)N[C@@H](CC(C)C)C(=O)N[C@@H](CCCCNC(C)C)C(=O)N1CCC[C@H]1C(=O)N[C@H](C)C(N)=O` [degarelix] (Ac-[d2Nal][dPhe(4-Cl)][d3Pal]S[Phe(4-NH2)](Dihydroorotyl(S))[dPhe(4-NHCONH2)]L[Lys(iPr)]P[dA]-NH2), the tumor growth response entry in test [1] is “not observed”. The “immune infiltration and PD-L1 expression within the TME after chemical castration” value in test [2] is “increases macrophage and CD4+ T cell infiltration and PD-L1 expression”.

These data come from patent publication US20210017607A1, “Methods of Predicting Responsiveness to Cancer Therapies” (The University of Chicago, priority 2019, published 2021).
